# Measurements taken from US20050250837A1, “Use of C-Raf inhibitors for the treatment of neurodegenerative diseases” (priority 2002, published 2005).
# Columns and labels:
# [1] = tested on: Akt; experiment: Akt phosphorylation (Ser473) in neuronal cultures, Western blot; assay type: cell-based, rat
# Procedure: The best-studied anti-apoptotic pathway in neurons is the PI-3 kinase—Akt signaling pathway (D'Mello et al., 1997; Dudek et al., 1997; Miller et al, 1997a). IGF-1, a potent survival-promotic factor for granule neurons mediates its effect by activating the PI-3 kinase-Akt pathway (Datta et al., 1997; Dudek et al., 1997; D'Mello et al., 1998). […] Switching cerebellar granule neurons from serum-containing HK medium in which they are cultured and allowed to mature, to serum-free LK or HK medium, causes a rapid downregulation of Akt phosphorylation and activity, which can be prevented by IGF-1 (Kumari et al., 2001). […] The same blot was reprobed with an antibody against phospho-Gskβ. Also loaded on the gel were lysates from untreated cultures (maintained in medium containing serum and high K+) and a culture treated for 1 hour with 25 ng/ml IGF-1. […] GSK3βis a proapoptotic molecule that is activated during apoptosis in many neuronal and normeuronal systems. Under survival promoting conditions GSK3β is kept inactivated by phosphorylation, a modification that can be induced by Akt. […] Another proapoptotic molecule that is phosphorylated and inactivated by Akt is the transcription factor, Forkhead (Linseman et al., 2002). […] Switching of neurons to LK medium leads to a rapid downregulation of Akt activity within 2 hours.
# For whole-cell lysates, the culture medium was discarded, the neurons washed twice with ice-cold phosphate-buffered saline (PBS), and lysed in lysis buffer (1% Triton, 20 mM Tris-HCl (pH 7.5), 150 mM NaCl, 1 mM Na2EDTA, 1 mM EGTA, 2.5 mM sodium pyrophosphate, 1 mM beta-glycerophosphate, 1 mM Na3VO4, 1 μg/ml leupeptin and 1× protease inhibitor mixture). Protein concentrations were measured using a Bradford protein assay kit (Bio-Rad), and equivalent amounts of protein were mixed with 6×SDS-PAGE sample buffer. […] After staining with Ponceau S to verify uniformity of protein loads/transfer, the membranes were analyzed for immunoreactivity. […]
# [2] = biological target: VEGFR2 (Homo sapiens, UniProt P35968); conditions: Lackey et al., 2000; cited from earlier work
# [3] = biological target: T1, C-Raf (Rattus norvegicus, UniProt P11345); experiment: C-Raf Ser259 phosphorylation in neuronal cultures, Western blot; assay type: cell-based; conditions: LK + 1 uM GW5074, 0-30 min
# T1 construct: Activities of endogenous C-Raf and B-Raf activity was assayed by measuring the ability of kinase immunoprecipitated from neuronal lysates; endogenous in cells; host or cells: primary rat cerebellar granule neurons
# Procedure: The cultures were lysed and the lysate subjected to Western blot analysis using a phopho-Ser259-specific antibody.
# For whole-cell lysates, the culture medium was discarded, the neurons washed twice with ice-cold phosphate-buffered saline (PBS), and lysed in lysis buffer (1% Triton, 20 mM Tris-HCl (pH 7.5), 150 mM NaCl, 1 mM Na2EDTA, 1 mM EGTA, 2.5 mM sodium pyrophosphate, 1 mM beta-glycerophosphate, 1 mM Na3VO4, 1 μg/ml leupeptin and 1× protease inhibitor mixture). Protein concentrations were measured using a Bradford protein assay kit (Bio-Rad), and equivalent amounts of protein were mixed with 6×SDS-PAGE sample buffer. Following heating at 95° C. for 5 min, proteins were subjected to SDS-polyacrylamide gel electrophoresis and transferred electrophoretically to polyvinylidene difluoride membrane (PVDF; Bio Rad). After staining with Ponceau S to verify uniformity of protein loads/transfer, the membranes were analyzed for immunoreactivity. Incubation with primary antibodies was performed overnight at 4° C. and with secondary antibodies for 1 h at room temperature. Immunoreactivity was developed by enhanced chemiluminescence (ECL; Amersham) and visualized by autoradiography. All antibodies were from Cell Signaling.
# [4] = tested on: cerebellar granule neurons; experiment: MPP+-induced cell death in cerebellar granule neurons; assay type: cell-based, rat; conditions: HK + 200 uM MPP+, different concentrations of GW5074, 24 hours
# [5] = biological target: p38 MAP kinase (Homo sapiens, UniProt Q16539); conditions: Lackey et al., 2000; cited from earlier work
# [6] = biological target: T1, C-Raf; experiment: Activity of C-Raf immunoprecipitated from neuronal lysates, GST-MEK substrate, phospho-MEK Western; assay type: cell-based
# Procedure: The immunoprecipitated C-Raf was used in in vitro kinase assays using GST-MEK as substrate and the reaction products subjected to Western analysis. Phosphorylation of MEK was detected using a phospho-MEK antibody. […] After 1 hour of treatment, the cultures were lysed, C-Raf immunoprecipitated from the lysate and used in an in vitro kinase assay with MEK as substrate. The reaction mixture was subjected to Western analysis using a phospho-MEK antibody as probe.
# (Hall-Jackson et al., 1999). […] Lysates from the cultures were used in a kinase reaction with MEK as substrate. […] Phosphorylation of MEK was detected by Western blot analysis using an phospho-MEK antibody and the same blot was reprobed with a C-Raf antibody.
# After treatment, cultures of 7-8-day old neurons were washed twice with ice-cold PBS and lysed in ice cold lysis buffer. The lysates were centrifuged for 10 min at 10,000 rpm at 4° C. Protein concentrations of the supernatant were measured using a Bradford protein assay kit (Bio-Rad), and equivalent amounts of protein were incubated overnight with primary antibody (1.0-2 ug) and then for 2 h with 20 ul Protein A/G PLUS-Agarose (Santa Cruz Biotech.) Immunoprecipitates were collected by centrifugation at 2,500 rpm for 5 min at 4° C. and washed three times with lysis buffer, and pellets resuspended in electrophoresis sample buffer (187.5 mM Tris-HCl (pH 6.8 at 25° C.), 6% SDS, 30% glycerol, 150 mM DTT, 0.03% bromophenol blue), boiled for 4 min and subjected to SDS-polyacrylamide gel electrophoresis.
# Activities of endogenous C-Raf and B-Raf activity was assayed by measuring the ability of kinase immunoprecipitated from neuronal lysates to phosphorylate a kinase-dead recombinant GST-MEK1 substrate. Following immunoprecipitation and multiple washes with lysis buffer, lysis buffer supplemented with 350 mM NaCl, and kinase buffer (25 mM HEPES pH 7.4 and 10 mM MgCl2), in vitro kinase assays are performed on the immune complexes using purified recombinant GST-MEK1 K97M protein as a substrate in kinase buffer supplemented with 85 μM ATP for 35 minutes at 30° C. Reactions are stopped by the addition of 3×SDS sample buffer and boiled for five minutes. Proteins are resolved by SDS-PAGE and subjected to Western blotting. The level of phosphorylated MEK is detected by a phospho-MEK antibody.
# T1 sequence (P11345 whole entry): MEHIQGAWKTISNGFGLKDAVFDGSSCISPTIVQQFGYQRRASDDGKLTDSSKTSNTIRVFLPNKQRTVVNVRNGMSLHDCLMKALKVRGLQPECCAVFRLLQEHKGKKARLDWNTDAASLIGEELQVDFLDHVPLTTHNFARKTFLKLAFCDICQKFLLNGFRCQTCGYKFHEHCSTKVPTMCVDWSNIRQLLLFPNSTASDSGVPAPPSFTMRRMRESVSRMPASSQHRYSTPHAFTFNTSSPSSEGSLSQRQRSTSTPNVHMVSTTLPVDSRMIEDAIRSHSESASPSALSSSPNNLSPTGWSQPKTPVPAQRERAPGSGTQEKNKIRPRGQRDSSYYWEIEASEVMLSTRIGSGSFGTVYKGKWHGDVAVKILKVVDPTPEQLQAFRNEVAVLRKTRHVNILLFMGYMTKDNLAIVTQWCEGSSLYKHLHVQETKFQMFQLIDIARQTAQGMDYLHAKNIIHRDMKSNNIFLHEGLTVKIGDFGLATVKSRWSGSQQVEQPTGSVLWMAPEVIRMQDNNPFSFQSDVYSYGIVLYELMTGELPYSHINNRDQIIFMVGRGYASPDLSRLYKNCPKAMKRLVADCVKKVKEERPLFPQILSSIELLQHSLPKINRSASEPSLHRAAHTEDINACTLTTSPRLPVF
# p38 MAP kinase, sequence (Q16539 whole entry): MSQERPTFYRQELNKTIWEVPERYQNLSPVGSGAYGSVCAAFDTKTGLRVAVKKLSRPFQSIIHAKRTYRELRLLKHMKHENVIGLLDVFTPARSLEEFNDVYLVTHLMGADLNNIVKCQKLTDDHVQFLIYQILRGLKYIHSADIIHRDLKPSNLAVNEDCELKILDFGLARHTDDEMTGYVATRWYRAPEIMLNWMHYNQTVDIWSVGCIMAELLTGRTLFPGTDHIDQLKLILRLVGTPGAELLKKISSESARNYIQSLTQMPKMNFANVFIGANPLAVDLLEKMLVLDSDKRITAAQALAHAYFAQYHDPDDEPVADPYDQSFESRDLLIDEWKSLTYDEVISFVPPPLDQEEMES
# VEGFR2, sequence (P35968 20-1356, species assumed): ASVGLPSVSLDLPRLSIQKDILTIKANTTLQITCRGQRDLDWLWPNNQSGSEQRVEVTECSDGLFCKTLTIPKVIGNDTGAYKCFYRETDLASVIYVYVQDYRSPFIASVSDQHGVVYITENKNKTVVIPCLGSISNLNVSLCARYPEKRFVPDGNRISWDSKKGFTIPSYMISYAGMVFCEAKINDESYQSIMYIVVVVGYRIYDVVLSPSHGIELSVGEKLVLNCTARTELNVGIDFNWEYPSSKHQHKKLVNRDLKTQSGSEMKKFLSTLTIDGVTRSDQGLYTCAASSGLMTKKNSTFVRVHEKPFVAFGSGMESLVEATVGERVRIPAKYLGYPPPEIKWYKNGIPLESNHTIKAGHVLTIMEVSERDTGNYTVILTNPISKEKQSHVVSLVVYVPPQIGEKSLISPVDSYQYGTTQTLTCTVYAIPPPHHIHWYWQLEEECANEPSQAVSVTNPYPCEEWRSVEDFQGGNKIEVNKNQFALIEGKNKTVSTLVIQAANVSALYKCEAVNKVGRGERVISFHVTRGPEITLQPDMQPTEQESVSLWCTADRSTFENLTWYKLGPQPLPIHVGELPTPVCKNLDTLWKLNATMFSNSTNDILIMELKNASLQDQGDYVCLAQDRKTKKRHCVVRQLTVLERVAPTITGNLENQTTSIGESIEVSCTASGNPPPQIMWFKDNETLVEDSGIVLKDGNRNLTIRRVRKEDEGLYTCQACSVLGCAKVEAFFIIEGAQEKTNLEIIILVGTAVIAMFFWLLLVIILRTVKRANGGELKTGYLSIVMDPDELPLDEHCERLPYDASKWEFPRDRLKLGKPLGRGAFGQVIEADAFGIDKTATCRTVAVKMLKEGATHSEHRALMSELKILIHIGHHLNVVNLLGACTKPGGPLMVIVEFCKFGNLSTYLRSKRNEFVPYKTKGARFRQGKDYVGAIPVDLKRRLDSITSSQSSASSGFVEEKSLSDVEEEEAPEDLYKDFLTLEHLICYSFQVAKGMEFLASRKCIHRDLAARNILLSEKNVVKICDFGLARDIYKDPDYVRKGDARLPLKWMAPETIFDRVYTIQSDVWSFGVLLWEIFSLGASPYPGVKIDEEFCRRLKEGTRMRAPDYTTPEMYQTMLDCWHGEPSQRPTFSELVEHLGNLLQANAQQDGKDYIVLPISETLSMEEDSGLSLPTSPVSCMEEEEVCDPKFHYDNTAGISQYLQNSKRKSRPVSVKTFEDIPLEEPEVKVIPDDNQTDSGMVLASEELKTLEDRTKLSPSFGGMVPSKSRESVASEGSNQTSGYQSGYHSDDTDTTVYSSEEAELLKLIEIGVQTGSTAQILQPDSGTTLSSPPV
compound,measurement,setting,value
"O=C1Nc2ccc(I)cc2C1=Cc1cc(Br)c(O)c(Br)c1 [GW5074, 5-Iodo-3-[(3,5-dibromo-4-hydroxyphenyl)methylene]-2-indolinone]",Akt phosphorylation after LK treatment,"[1]; LK + 1 uM GW5074, 1 and 3 hours",delays the downregulation of Akt phosphorylation
same,de novo Akt activation after downregulation in LK,[1]; added to cultures already switched to LK,does not lead to Akt activation
same,effect on activity of VEGFR2,[2],no effect
same,phosphorylation of C-Raf at Ser259,[3],rapid increase in Ser259 phosphorylation
same,MPP+-induced cell death,[4],reduced MPP^+-induced cell death
same,effect on activity of p38 MAP kinase,[5],no effect
same,concentration inhibiting immunoprecipitated C-Raf when added in vitro,[6]; GW5074 added to the immunoprecipitated enzyme in the kinase reaction,lower than 1 uM
same,activity of C-Raf immunoprecipitated from treated cultures,"[6]; LK + GW5074 0.25-5 uM, 1 hour",marked induction
